From patent US8557864B2, “Agent having neurotrophic factor-like activity” (Nagoya Industrial Science Research Institute, priority 2007, dated 2013)

What was measured:
Format in all cases: in vivo
[1] = test system: mice under chronic mild stress; assay: Tail suspension test, compound given at the same time as stress; conditions: 20, 100 and 500 μg/kg intraperitoneally once per day with stress; stressed 3 week- and 1 week-administration groups
Description: Mice under established chronic mild stress (hereinafter referred to as “stress”) were used for a depression and anxiety disorder-like model animal. Stress was applied as follows. 7-week-old male ddY strain mice fed in one cage for 4 mice were used and first subjected to forced swimming for 15 minutes. Then, the mice were fed in a sloped cage for 2 days, and then rested in a normal cage for 1 day. Then, the mice were fed in a dirt cage moisturized with 200 mL of water for 1 day and then rested in a normal cage for 1 day. Then, the mice were fed in a rotational cage that rotated at 180 rpm for 1 day, and then rested in a normal cage for 1 day. […] For 0 μg/kg administration examples of controls, a phosphoric acid buffer containing 0.1% DMSO (controls were expressed as “PBS” or “0 μg/kg” in the figure shown below) was administered in an amount of 0.25 mL to each of a stressed example and a non-stressed example. […]
A site of 1 cm from the tip of the tail of a mouse was grasped by a hand, being apart from a floor from 10 cm, and an immobility time in suspension for 6 minutes was measured for 2 hours. Since the immobility time prolongs when the mouse has a depressive symptom (condition), a level of the depressive symptom (condition) can be evaluated from the length of the immobility time. […]

[2] = Measurement of weights of mice before and after stress; conditions: 3 weeks with stress
Source text: A weight of a mouse before stress was subtracted from the weight of the mouse immediately after administering the compound 8 as well as stress for 3 weeks to obtain a weight gap (g).

[3] = Measurement of weights of mice after completion of stress; conditions: 500 μg/kg for 1 week after completion of stress
Source text: A weight of a mouse before stress was subtracted from of the weight of the mouse immediately after completion of stress for 3 weeks without administering the compound 8 and the weight of the mouse after administering the compound 8 for 1 week after completion of stress, respectively, to obtain weight gaps (g). FIGS. 29 and 30 show the results. Although doses are described in FIG. 29, the compound 8 was not administered as described above, and mice corresponding to each of the administration groups administered with the compound 8 for 1 week after completion of stress are only shown.

mice [4] = assay: Voluntary alternation behavior test (Y-maze test) of mice administered with trimethyltin
Description: The voluntary alternation behavior test (Y-maze test) is one kind of a behavior test using a Y-shaped maze constituted with three arms. First, a mouse is placed on the tip of one arm out of the three arms, letting the mouse freely explore in the maze over 8 minutes, and arms where the mouse transferred are recorded in order. Then, the number of times of transferring to each arm (total arm selection number (total arm entries)) and the number of sequentially selecting three different arms (number of alternation behavior (number of spontaneous behavior)) are counted.
Trimethyltin (hereinafter referred to as “TMT”) is an organic metal compound having neurotoxicity, and acute nerve cell death is cased particularly in granular nerve cells of the hippocampus dentate gyrus, which thus affects memory and learning abilities of a mouse.
The voluntary alternation tests (Y-maze tests) were performed on 1) test groups to which the compound 8 was singly administered and 2) test groups to which TMT and the compound 8 were administered. In the test groups to which the compound 8 was singly administered, the compound 8 was dissolved in 0.1% DMSO to adjust a concentration so as to have each of the doses of 100 and 500 μg/kg and intraperitoneally injected to 6 mice in every administration example each in a dose of 0.25 mL. In 0 μg/kg weight administration examples of controls, 0.25 mL of a phosphoric acid buffer containing 0.1% DMSO was intraperitoneally injected in each time. The voluntary alternation tests (Y-maze tests) were performed on each of the administration groups after the elapse of 2 hours from intraperitoneal administration. In the test group in which TMT and the compound 8 were administered, TMT (2 mg/kg weight) was intraperitoneally administered to a mouse, and the compound 8 was intraperitoneally administered in the same manner as the test groups in which the compound 8 was singly administered after 2 days have passed, and the voluntary alternation test (Y-maze test) was performed after the elapse of 2 hours. FIG. 32 show the results. Significance tests were performed in a Turkey's test (*, ##) and a Student's t-test (++). “DAEE” denotes the compound 8.

mice [5] = assay: Novel object recognition test on mice; conditions: 100 and 500 μg/kg intraperitoneally, healthy mice, test started after 2 hours
Description: A promotion activity of brain functions due to the compound 8 was examined using a novel object recognition test. The novel object recognition test is a method of evaluating memory and learning abilities from behaviors after showing a “familiar object” and a “novel object” to mice, utilizing the fact that the mice take exploration behaviors (behaviors such as coming closer to or smelling an object) when they find the “novel object”.
The compound 8 was dissolved in 0.1% DMSO to adjust a concentration so as to have each dose of 100 and 500 μg/kg and intraperitoneally injected to 6 mice in every administration example each in a dose of 0.25 mL. In a 0 μg/kg weight administration example of a control, 0.25 mL of a phosphoric acid buffer containing 0.1% DMSO was intraperitoneally injected. The compound 8 was administered to mice and the novel object recognition test was performed after 2 hours. That is, a mouse was put in a place where two identical objects were present for 15 minutes to let the mouse memorize the two objects (these two objects will be “familiar objects”). After the elapse of 1 day, an exploration behavior test in which the mouse was put in a place where the “familiar objects and “novel objects” were present was carried out for 10 minutes FIG. 33 show the results. Significance tests were performed in a Student's t-test (*) and a Turkey's test (##). […]

In the case of `CCCCCCC/C=C/C(=O)OCC` [Compound 8, trans-2-decenoic acid ethyl ester], the “immobility time, stressed vs non-stressed example” value [1] is reported as “no significant difference”, the “weight gap, stressed vs non-stressed example” value ([2]; 500 μg/kg administration group) is reported as “no significant difference” and the “ratio of weight decrease in stressed examples compared to control (PBS)” value ([2]; compound 8 administration groups) is reported as “less”. The “weight gap, stressed vs non-stressed example” value [3] was “no significant difference”, the “total arm entries (motor function)” value (mice [4]; 100 and 500 μg/kg intraperitoneally, 2 hours before test, with or without TMT) was “no difference” and the “voluntary alternation behavior, compound singly administered” value (mice [4]; 100 and 500 μg/kg intraperitoneally, test after 2 hours) was “significantly increased”. The “voluntary alternation behavior in TMT-treated mice” value (mice [4]; TMT 2 mg/kg intraperitoneally, compound 8 after 2 days, test after 2 hours) was “suppressed decrease” and the “recognition index of novel objects” value (mice [5]) was “became high”.
